Source: patent publication EP4755885A1 (Shanghai Hansoh Biomedical Co., Ltd., priority 2023, dated 2025)

What was measured:
[1] = target: T1, human GLP-1 receptor (Homo sapiens, UniProt P43220); assay: cAMP production in cell line stably transformed with human GLP1 receptor, 2 h co-incubation (HTRF); type: cell-based; details: CHO-K1/GLP-1R/CRE-luc cells, stimulation for 2 h, read-out: EC50
T1 construct: expressed in transfected cells
Method: The purpose of this assay example is to test the ability of the compound to activate the human GLP-1 receptor on cell surface. The EC50 for stimulated cAMP production after activation characterizes the ability of the compound to activate the human GLP-1 receptor.
In this experiment, the compound and cells were co-incubated for 2 h.
Frozen cell line CHO-K1/GLP-1R/CRE-luc stably transformed with human GLP1 receptor was removed from a liquid nitrogen tank, and was placed in a 37°C water bath for rapid thawing. The cells were resuspended in DMEM/F12 medium, and after centrifugation, were washed once. The cells were resuspended in an experimental buffer, i.e., DMEM/F12 medium containing 0.1% casein. After centrifugation, cell density was adjusted using the experimental buffer. The cells were plated onto a 384-well plate at a density of 1500 cells/5 µL/well. Then, each well was added with 2.5 µL of IBMX working solution prepared with the buffer, the final concentration of IBMX being 0.5 mM, and 2.5 µL of a serially diluted compound sample (starting from […], 3-fold dilution, 12 concentrations). The plate was centrifuged at 1000 rpm for 1 min, and was stood for incubation at 37°C for 2 h. Determination was performed using the Cisbio cAMP - Gs Dynamic kit. cAMP-d2 and anti-cAMP-Eu3+-Cryptate were diluted 18-fold and 20-fold respectively with cAMP Lysis & Detection Buffer, and were respectively mixed homogeneously. Each well was added with 5 µL of diluted cAMP-d2 solution, and the plate was centrifuged at 1000 rpm for 1 min, and shaken for 30 seconds for homogeneous mixing. Then, each well was added with 5 µL of diluted anti-cAMP-Eu3+-Cryptate solution, and the plate was centrifuged at 1000 rpm for 1 min and was incubated in the dark at room temperature for 1 h. HTRF signals were read using the Biotek Synergy H1 microplate reader, the excitation wavelength being 320 nm and the emission wavelengths being 620 nm and 665 nm.
The signal-to-signal ratio was calculated (665 nm/620 nm * 10,000). Nonlinear fitting between the signal-to-signal ratio and the sample concentration was performed in GraphPad Prism 10 using a four-parameter equation to obtain the EC50 value.

[2] = Pharmacokinetic evaluation in beagles, oral administration; type: in vivo; details: p.o. 2 mg/kg, plasma; for MRT inf: read-out: MRT 0-∞
Method: Beagles were used as test animals to study the pharmacokinetic behavior of the compound of the present invention, administered orally at a dose of 2 mg/kg, in beagles (plasma).
Beagles, 3 per group, male.
(§1) Preparation of drug for oral administration: 10%PEG400/10%PG/80% glycine buffer (100 mM glycine, 64 Mm NaOH, […]) buffer.
Single PK: The compound of the present invention was weighed into a 100 mL glass bottle, and the solution was added. The pH was first adjusted with 1 M NaOH until the compound dissolves to obtain a clear solution, and then the pH was readjusted to pH 9.0-9.5 with 1 M HCl. Sonication was performed for 10 min to obtain a colorless clear solution having a concentration of 0.4 mg/mL.
Three beagles, male, respectively administered p.o. after fasting overnight, at a dose of 2 mg/kg and in an administration volume of 5 mL/kg.
Blood collection: 0.3 mL of blood was collected from the forelimb vein of the beagles before administration and at 0.25, 0.5, 1, 2, 4, 6, 8, and 24 h after administration. The blood samples were placed in EDTA-K2 anticoagulant tubes and centrifuged at 6000 rpm at 4°C for 6 min to separate plasma, which was stored at -80°C. The beagles were fed 4 h after administration.
(§2) • 1) 40 µL of a plasma sample was added with 160 µL of acetonitrile for precipitation, and after mixing, the mixture was centrifuged at 3500 × g for 5 to 20 min. • 2) The supernatant solution after treatment was taken for LC/MS/MS analysis of the concentration of the test compound. The LC/MS/MS analysis instrument was AB Sciex API 4000 Qtrap.
• Liquid phase condition: Shimadzu LC-20AD pump • Chromatographic column: Agilent ZORBAX XDB-C18 (50×2.1 mm, 3.5 µm) Mobile phase: Solution A was 0.1% formic acid aqueous solution, and Solution B was acetonitrile • Flow rate: 0.4 mL/min • Elution time: 0-4.0 min, the eluent was as follows: […]

[3] = Pharmacokinetic evaluation in mice, oral administration; type: in vivo, Balb/c mice; details: p.o. 5 mg/kg, plasma; for AUC(0-inf) / AUC(0-t) / Cmax / Tmax / MRT inf: mouse, in vivo, po; for MRT inf: read-out: MRT 0-∞
Method: Balb/c mice were used as test animals to study the pharmacokinetic behavior of the compound of the present invention in mice (plasma) at a dose of 5 mg/kg administered orally and 1 mg/kg administered intravenously.
Balb/c mice, 3 per group, male.
as §1
10 ml of PEG400, 10 ml of PG, and 80 ml of (100 mM glycine, 64 Mm NaOH, pH = 9) were measured into a 100 ml volumetric flask, vortexed, mixed homogeneously, and sonicated to obtain a clear solution.
Single PK: An example compound was weighed into a 4 mL glass bottle. The solution was added, and sonication was performed for 10 min to obtain a colorless clear solution having a concentration of 0.5 mg/mL.
The solution was added, and sonication was performed for 10 min to obtain a colorless clear solution having a concentration of 0.5 mg/mL.
Three Balb/c mice, male, respectively administered p.o. after fasting overnight, at a dose of 5 mg/kg and in an administration volume of 10 mL/kg.
The blood samples were placed in EDTA-K2 anticoagulant tubes and centrifuged at 6000 rpm at 4°C for 6 min to separate plasma, which was stored at -80°C. The mice were fed 4 h after administration.
as §2
• Liquid phase condition: Shimadzu LC-20AD pump • Chromatographic column: Agilent ZORBAX XDB-C18 (50×2.1 mm, 3.5 µm) Mobile phase: Solution A was 0.1% formic acid aqueous solution, and Solution B was acetonitrile • Flow rate: 0.4 mL/min • Elution time: 0-4.0 min, the eluent was as follows:
Main pharmacokinetic parameters were calculated using WinNonlin 6.1.

[4] = not marked single PK (cassette PK)

T1 sequence (P43220 24-463): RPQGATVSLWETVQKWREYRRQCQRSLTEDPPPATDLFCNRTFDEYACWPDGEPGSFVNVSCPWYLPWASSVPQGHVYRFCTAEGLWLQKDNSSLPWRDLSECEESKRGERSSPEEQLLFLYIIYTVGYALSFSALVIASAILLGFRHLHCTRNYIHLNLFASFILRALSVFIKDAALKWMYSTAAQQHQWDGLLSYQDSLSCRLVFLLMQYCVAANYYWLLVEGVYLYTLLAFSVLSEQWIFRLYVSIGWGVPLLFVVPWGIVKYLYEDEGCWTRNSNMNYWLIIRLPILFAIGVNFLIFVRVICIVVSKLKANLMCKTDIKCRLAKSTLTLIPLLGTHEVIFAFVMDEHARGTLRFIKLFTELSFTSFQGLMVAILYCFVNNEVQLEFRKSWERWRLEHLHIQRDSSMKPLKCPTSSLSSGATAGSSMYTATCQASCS

With “3-((3R,4r,5 S)-4-(5-((S)-2,2-dimethyltetrahydro-2H-pyran-4-yl)-2-((S)-3-(3-(4-fluoro-1-(methyl-d3)-1H-indazol-5-yl)-2-carbonyl-2,3-dihydro-1H-imidazol-1-yl)-2-(4-fluoro-3,5-dimethylbenzene)-4-methyl-4,5,6,7-tetrahydro-2H-pyrazolo[4,3-c]pyridine-5-carbonyl)-1H-indol-1-yl)tetrahydro-2H-pyran-4-yl)-1,2,4-oxadiazol-5(4H)-one [Example 338]” the EC50 [1] was 0.023 nM, the “AUC 0-∞” value [2] was 21417 ng·h/mL and the “AUC(0-t)” value [2] was 20922 ng·h/mL. For the same compound, the Cmax [2] was 3915 ng/mL, the “MRT 0-∞” value [2] was 5.3 h and the Tmax [2] was 1.3 h. For the same compound, the t1/2 [2] was 4.4 h.
For C[C@H]1c2c(nn(-c3ccc(F)c(C4CC4)c3)c2-n2ccn(-c3ccc4c(c3)C3(CC3)C(=O)N4C)c2=O)CCN1C(=O)c1cc2cc([C@H]3CCOC(C)(C)C3)ccc2n1[C@@]1(c2noc(=O)[nH]2)C[C@@H]1C [Example 32], the AUC(0-inf) [3, 4] was 9320 ng·h/mL, the AUC(0-t) [3, 4] was 8990 ng·h/mL and the Cmax [3, 4] was 1040 ng/mL. It also gave a Tmax [3, 4] of 1 h, an MRT inf [3, 4] of 6.7 h and a tl/2 [3, 4] of 5.3 h.
Cc1cc(-n2nc3c(c2-n2ccn(-c4cc5c6c(c4)CCC(=O)N6CCC5)c2=O)[C@H](C)N(C(=O)c2cc4cc([C@H]5CCOC(C)(C)C5)ccc4n2[C@@]2(c4noc(=O)[nH]4)C[C@@H]2C)CC3)cc(C)c1F [Example 34] gave an EC50 [1] of 0.11 nM, an AUC(0-inf) ([3]; single PK) of 13300 ng·h/mL and an AUC(0-t) ([3]; single PK) of 12100 ng·h/mL. It also gave a Cmax ([3]; single PK) of 1510 ng/mL, a Tmax ([3]; single PK) of 1 h and an MRT inf ([3]; single PK) of 9 h. The tl/2 ([3]; single PK) was 7.8 h, the AUC(0-inf) ([2]; dog, po) was 9390 ng·h/mL and the AUC(0-t) at 24 h ([2]; dog, po) was 9090 ng·h/mL. The half-life ([2]; dog, po) was 5.1 h, the Cmax ([2]; dog, po, read-out: Cmax) was 1330 ng/mL and the MRT inf ([2]; dog, po) was 5.7 h. It also gave a Tmax ([2]; dog, po, read-out: tmax) of 1.7 h.
For Cc1cc(-n2nc3c(c2-n2ccn(-c4cc5c6c(c4)OCCN6C(=O)CC5)c2=O)[C@H](C)N(C(=O)c2cc4cc([C@H]5CCOC(C)(C)C5)ccc4n2[C@@]2(c4noc(=O)[nH]4)C[C@@H]2C)CC3)cc(C)c1F [Example 43], the EC50 [1] was 0.06 nM.
Work on Cc1cc(-n2nc3c(c2-n2ccn(-c4ccc5c(cnn5C5CC5)c4F)c2=O)[C@H](C)N(C(=O)c2cc4cc([C@H]5CCOC(C)(C)C5)ccc4n2[C@@]2(c4noc(=O)[nH]4)C[C@@H]2C)CC3)cc(C)c1C#N [Example 49] yielded an EC50 [1] of 0.032 nM, an AUC(0-inf) ([3]; single PK) of 16600 ng·h/mL and an AUC(0-t) ([3]; single PK) of 15700 ng·h/mL. For the same compound, the Cmax ([3]; single PK) was 2430 ng/mL, the Tmax ([3]; single PK) was 1 h and the MRT inf ([3]; single PK) was 7.1 h. The tl/2 ([3]; single PK) was 6.5 h.
In the case of Cc1cc(-n2nc3c(c2-n2ccn(-c4ccc5c(cnn5C5CC5)c4F)c2=O)[C@H](C)N(C(=O)c2cc4cc([C@H]5CCOC(C)(C)C5)ccc4n2[C@@]2(c4noc(=O)[nH]4)C[C@@H]2COC(F)F)CC3)cc(C)c1F [Example 68], the EC50 [1] is reported as 0.016 nM.
Work on C#C[C@H]1C[C@]1(c1noc(=O)[nH]1)n1c(C(=O)N2CCc3nn(-c4cc(C)c(F)c(C)c4)c(-n4ccn(-c5cc6c7c(c5)CCC(=O)N7CCC6)c4=O)c3[C@@H]2C)cc2cc([C@H]3CCOC(C)(C)C3)ccc21 [Example 174] yielded an EC50 [1] of 0.15 nM.
Work on Cc1cc(-n2nc3c(c2-n2ccn(-c4ccc5c(cnn5C5CC5)c4F)c2=O)[C@H](C)N(C(=O)c2cc4cc([C@H]5CCOC(C)(C)C5)ccc4n2[C@@]2(c4noc(=O)[nH]4)C[C@@H]2COc2ccccc2)CC3)cc(C)c1F [Example 187] yielded an EC50 [1] of 0.08 nM.
In the case of Cc1cc(-n2nc3c(c2-n2ccn(-c4ccc5c(cnn5C5CC5)c4F)c2=O)[C@H](C)N(C(=O)c2cc4cc([C@H]5CCOC(C)(C)C5)ccc4n2[C@@]2(c4noc(=O)[nH]4)C[C@@H]2C#N)CC3)cc(C)c1F [Example 190], the EC50 [1] is reported as 0.04 nM.
For [2H]C([2H])(OC1CC1)[C@H]1C[C@]1(c1noc(=O)[nH]1)n1c(C(=O)N2CCc3nn(-c4cc(C)c(F)c(C)c4)c(-n4ccn(-c5ccc6c(cnn6C6CC6)c5F)c4=O)c3[C@@H]2C)cc2cc([C@H]3CCOC(C)(C)C3)ccc21 [Example 194], the EC50 [1] was 0.009 nM, the AUC(0-inf) [3, 4] was 32200 ng·h/mL and the AUC(0-t) [3, 4] was 19100 ng·h/mL. The Cmax [3, 4] was 1840 ng/mL, the Tmax [3, 4] was 2.7 h and the MRT inf [3, 4] was 26.6 h. The tl/2 [3, 4] was 19.9 h, the AUC(0-inf) ([2]; dog, po) was 43700 ng·h/mL and the AUC(0-t) at 24 h ([2]; dog, po) was 40100 ng·h/mL. For the same compound, the half-life ([2]; dog, po) was 7.6 h, the Cmax ([2]; dog, po, read-out: Cmax) was 5830 ng/mL and the MRT inf ([2]; dog, po) was 8.3 h. The Tmax ([2]; dog, po, read-out: tmax) was 1 h.
With Cc1cc(-n2nc3c(c2-n2ccn(-c4ccc5c(cnn5C5CC5)c4F)c2=O)[C@H](C)N(C(=O)c2cc4cc([C@H]5CCOC(C)(C)C5)ccc4n2[C@@]2(c4noc(=O)[nH]4)C[C@@H]2COC2CC2)CC3)cc(C)c1C#N [Example 195] the EC50 [1] was 0.035 nM.
Cc1cc(-n2nc3c(c2-n2ccn(-c4cc5c6c(c4)CCC(=O)N6CCC5)c2=O)[C@H](C)N(C(=O)c2cc4cc([C@H]5CCOC(C)(C)C5)ccc4n2[C@@]2(c4noc(=O)[nH]4)C[C@@H]2COC2CC2)CC3)cc(C)c1F [Example 200] gave an EC50 [1] of 0.09 nM.
